Assay: Ocular tension (IOP) lowering in rabbits after eye drop, Tonopen XL tonometer
Assay type: in vivo, Rabbits (New Zealand albino)
Details: eye drop of 0.5% preparation, 50 μL; for AUC0-8 hr Δ IOP % mean ± S.D.: IOP before, 2.5 h and 8 h after treatment, trapezoidal rule, change relative to pre-treatment; for ocular tension compared with the control group: p < 0.05 vs medium control
Method: Rabbits (New Zealand albino, body weight: 2.0 to 2.5 kg) having ocular tension of 15 mmHg before treated were used in this experiment. Experimental group of the rabbits were treated with an eye drop of the preparation of a 0.5% concentration of the compounds A and B with a dosage of 50 μL at a time. Control group of the rabbits were treated with an eye drop of a medium (ophthalmic solutions containing 0.40% of NaH2PO4, 0.47% of NaHPO4, 0.47% of NaCl, and 1.0% of polysorbate 80 with pH 6.8) with the same dosage as in the experimental group at a time. The ocular tension of the experimental group and the control group was measured with a Tonopen™ XL tonometer before treatment, 2.5 hours, and 8 hours after treatment.
Next, a ratio of ocular tension change relative to ocular tension measured before treatment (Δ IOP %) was calculated, and an area (AUC0-8hr Δ IOP %) defined by the area under the curve obtained by plotting out Δ IOP % with respect to the horizontal axis representing lapse of time was calculated in accordance with a method of trapezoidal rule.

Row | Compound | AUC0-8 hr Δ IOP % mean ± S.D. [%] | ocular tension compared with the control group
1 | Cc1ccc(-c2ccccc2C(=O)Nc2ccc(C(=O)N3CCC(=O)N(CC(=O)N4CCN(C)CC4)c4ccccc43)cc2)cc1 [Compound B, 5-{4-[2-(4-methylphenyl)benzoylamino]benzoyl}-1-[(4-methyl-1-piperazinyl)carbonylmethyl]-1,3,4,5-tetrahydro-1,5-benzodi azepin-2(2H)-one] | −145.8 ± 87.7 | significantly lowered
2 | COc1cc(C(=O)N(C)c2ccc(C)cc2OCCCCCC(=O)N2CCN(C)CC2)ccc1NC(=O)c1ccccc1OCCCN [Compound A, 4-[2-(3-aminopropyl-1-yl)oxy]benzoylamino-3-methoxy-N-methyl-N-{4-methyl-2-[5-(4-methylpiperazin-1-yl)carbonylpent-1-yloxy]phenyl}benzamide] | −147.0 ± 89.0 | significantly lowered

From US20040006142A1, “Ocular tension depressor” (priority 2002, published 2004)
